# Results from patent US7109364B2, “Group of anti-cancer compounds with specific structure and their production method” (priority 2000, dated 2006).
# Like-named read-outs stand apart in the source and are kept apart here.
# Experiments:
# [1] = system: K562 human leukemia cell line; assay: In vitro anti-cancer efficacy, K562, trypan blue dye exclusion, 48 hours; assay type: cell-based; details: for IC50 / IC90: Homo sapiens; for IC50: read-out: K562 IC50; for IC90: read-out: K562 IC90
# Procedure: (§1) The above compounds were dissolved in DMSO at stock concentration of 10 mg/ml and stored at 4° C. Before each experiment they were diluted to desired concentration with serum-free RPMI 1640 medium
# 1. K562 human leukemia cell line: K562 cells were maintained in RPMI 1640 medium with 5% fetal bovine serum at 37° C. under 5% CO2 atmosphere. 4×10^4 cells/well were plated on 96-well plate. After treatment with the test compounds and solvent control (DMSO) for 48 hours, numbers of live cells were counted by trypan blue dye exclusion.
# (§2) Reagents and Methods: same as in Experiment 1.
# [2] = system: B16 mouse melanoma cell line; assay: In vitro anti-cancer efficacy, B16, SRB method, 48 hours; assay type: cell-based; details: for IC50 / IC90: Mus musculus; for IC50: read-out: B16 IC50; for IC90: read-out: B16 IC90
# Procedure: as §1
# 2. B16 mouse melanoma cell line: B16 cells were maintained under the same condition as above. 2×10^4 cells/well were plated on 48-well plate and left for 12 hours for attachment. Cells were then treated with the test compounds and solvent control for 48 hours. Numbers of live cells were determined by SRB method. Briefly, cells were fixed with 50 μl/well 15% TCA for 1 hour, and then washed three times with double-distilled water. After drying 50 μl/well 1% SRB dye was added and reacted for 10 minutes. Plate was washed with 1% acetic acid. 0.2 ml Tris buffer (pH 9.6) was added and OD510 was recorded.
# as §2
# [3] = system: Mouse cervical carcinoma U14; assay: In vivo anti-cancer efficacy, solid tumor model
# Source text: Mouse cervical carcinoma U14 model was used to compare in vivo anti-cancer efficacy of 15-methyl-2-hexadecenoic acid, 13-methyl-tetradecanoic acid and the chemotherapy drug cytoxan (CTX).
# 40 male ICR strain mice, weighing 19–22 g, were randomly divided into 4 groups of 10 each. U14 cervical carcinoma mass (about 2 mm^3 each) was transplanted subcutaneously into the right armpits of all animals following standard procedure. The test group was given 15-methyl-2-hexadecenoic acid and 13-methyl-tetradecanoic acid at 0.4 g/kg, respectively, intragastrically (i.g.) daily for 11 days. The positive control group was given a single dose of CTX i.g. (25 mg/kg) on day 1. Negative control group was given normal saline (N.S.) at 0.2 ml/10 g daily for 11 days. On the 12th day, all mice were sacrificed and the tumors were isolated and weighed. The tumor inhibition rate (TIR) was calculated and subject to t test.
# [4] = K562, Table 2, unit inferred, methods same as in Experiment 1
# [5] = Table 2, unit inferred, methods same as in Experiment 1
"IC50 ([1]; K562, Table 1, 48 hours)","IC90 ([1]; K562, Table 1, 48 hours)","IC50 ([2]; Table 1, 48 hours)","IC90 ([2]; Table 1, 48 hours)",Molecule,further results
6.31 µg/mL,11.5 µg/mL,5.75 µg/mL,10.6 µg/mL,"CC(C)CCCCCCCCCCCCNc1ccc(O)c(O)c1 [Compound 32, N-(13-Methyltetradecyl)-4-amino-1,2-benzenediol]",
9.1 µg/mL,42.4 µg/mL,19.3 µg/mL,31.9 µg/mL,"CCN(CC)C(=O)CCCCCCCCCCCC(C)C [Compound 13, N,N-Diethyl-13-methyl-tetradecanamide]",
18.4 µg/mL,38.5 µg/mL,17.2 µg/mL,33.7 µg/mL,"CC(C)CCCCCCCCCCCC(=O)N1CCCCC1 [Compound 14, N-(13-Methyltetradecanoyl)piperidine]",
15.9 µg/mL,20.4 µg/mL,11.9 µg/mL,19.2 µg/mL,"CC(C)CCCCCCCCCCCC(=O)N1CCOCC1 [Compound 16, N-(13-Methyl-tetradecanoyl)morpholine]",
24.3 µg/mL,38.1 µg/mL,24.5 µg/mL,34.6 µg/mL,"CC(C)CCCCCCCCCCCC(=O)N[C@@H](C=O)[C@@H](O)[C@H](O)[C@H](O)CO [Compound 11, N-(13-methyl-tetradecanoyl)-2-amino-2-deoxyglucose]",
11.8 µg/mL,30.6 µg/mL,10.4 µg/mL,20.1 µg/mL,"CC(C)CCCCCCCCCCCC(=O)N[C@@H](CC(C)C)C(=O)O [Compound 7, N-(13-methyl-tetradecanoyl)-L-leucine]",
16.2 µg/mL,25 µg/mL,13.1 µg/mL,17.3 µg/mL,"CC(C)CCCCCCCCCCCC(=O)N1CCCC1 [Compound 15, N-(13-Methyl-tetradecanoyl)pyrrolidine]",
51.2 µg/mL,,,,"CC(C)CCCCCC=CC(=O)O [Compound 33, 9-Methyl-2-decenoic acid]","IC50 [1, 4]: 26.7 µg/mL; IC90 [1, 4]: 51.2 µg/mL; IC50 [2, 5]: 40.5 µg/mL; IC90 [2, 5]: 91 µg/mL"

# More lines, now with the values behind:
Molecule,"IC50 ([1]; K562, Table 1, 48 hours)","IC90 ([1]; K562, Table 1, 48 hours)","IC50 ([2]; Table 1, 48 hours)","IC90 ([2]; Table 1, 48 hours)",further results
"CC(C)CCCCCCCCCCC(=O)c1ccc(O)cc1O [Compound 18, (2,4,-dihydroxy phenyl)-12-methyl tridecanone]",,,,,"K562 IC50 ([1]; Table 1, 48 hours): 6.42 µg/mL; K562 IC90 ([1]; Table 1, 48 hours): 8.90 µg/mL; B16 IC50 ([2]; Table 1, 48 hours): 5.91 µg/mL; B16 IC90 ([2]; Table 1, 48 hours): 8.12 µg/mL"
"CC(C)CCCCCCCC(=O)O [9-methyl-decanoic acid, reference compound]",,,,,"IC50 [1, 4]: 55.5 µg/mL; IC90 [1, 4]: 87 µg/mL; IC50 [2, 5]: 97 µg/mL; IC90 [2, 5]: 280 µg/mL"
"CC(C)CCCCCCCCCCCCc1ccc(O)cc1O [Compound 21, (13-Methyl tetradecyl)-2,4-dihydroxy phene]",,,,,"K562 IC50 ([1]; Table 1, 48 hours): 3.62 µg/mL; K562 IC90 ([1]; Table 1, 48 hours): 5.25 µg/mL; B16 IC50 ([2]; Table 1, 48 hours): 3.22 µg/mL; B16 IC90 ([2]; Table 1, 48 hours): 5.14 µg/mL"
"CC(C)CCCCCCCCCCCC(=O)N1CCC[C@H]1C(=O)O [Compound 10, N-(13-methyl-tetradecanoyl)-L-proline]",,,,,"IC50 ([1]; K562, 48 h): 17.2 µg/mL; IC90 ([1]; K562, 48 h): 25.3 µg/mL; IC50 ([2]; 48 h): 15.2 µg/mL; IC90 ([2]; 48 h): 17.3 µg/mL"
"(2,4,6-Trihydroxyphenyl)-12-methyl tridecanone [Compound 19]",,,,,"K562 IC50 ([1]; Table 1, 48 hours): 5.13 µg/mL; K562 IC90 ([1]; Table 1, 48 hours): 6.80 µg/mL; B16 IC50 ([2]; Table 1, 48 hours): 4.93 µg/mL; B16 IC90 ([2]; Table 1, 48 hours): 6.11 µg/mL"
CC(C)CCCCCCCCCCCC(=O)O [13-methyl-tetradecanoic acid],,,,,"TIR (tumor inhibition rate) ([3]; day 12, test compounds 0.4 g/kg i.g. daily 11 days, CTX 25 mg/kg i.g. single dose): 64.6%; Tumor W. ([3]; day 12, test compounds 0.4 g/kg i.g. daily 11 days, CTX 25 mg/kg i.g. single dose, ± SD): 0.93 ± 0.32 g; Body W. D1 ([3]; mouse, in vivo): 20.7 ± 0.7 g"
"CC(C)CCCCCCCCCCCC(=O)N[C@@H](Cc1ccccc1)C(=O)O [Compound 5, N-(13-methyl-tetradecanoyl)-L-phenylalanine]",10.3 µg/mL,19.6 µg/mL,13.4 µg/mL,20.5 µg/mL,
"CC(C)CCCCCCCCCCC(Br)C(=O)O (stereo not drawn) [Compound 27, 2-Bromo-13-methyl-tetradecanoic acid]",7.21 µg/mL,10.1 µg/mL,6.1 µg/mL,11.2 µg/mL,
"CC(C)CCCCCCCCCCCC(=O)N[C@@H](C)C(=O)O [Compound 4, N-(13-methyl-tetradecanoyl)-L-alanine]",11.2 µg/mL,20.7 µg/mL,14.8 µg/mL,18.4 µg/mL,
CC(C)CC=CCCCCC(=O)O [9-methyl-6-decenoic acid],,,,,"IC50 [1, 4]: 50.8 µg/mL; IC90 [1, 4]: 83 µg/mL; IC50 [2, 5]: 90 µg/mL; IC90 [2, 5]: 269 µg/mL"
"CC(C)CCCCCCCCCCCNc1ccc(O)c(O)c1 [Compound 26, N-(12-Methyl-tridecyl)-4-amino-1,2-benzenediol]",6.73 µg/mL,13.5 µg/mL,5.81 µg/mL,12.6 µg/mL,
"CC(C)CCCCCCCCCCCCCC(=O)O [15-methyl-hexadecanoic acid, reference compound]",,,,,"IC50 [1, 4]: 25.9 µg/mL; IC90 [1, 4]: 35.6 µg/mL; IC50 [2, 5]: 20.7 µg/mL; IC90 [2, 5]: 38.2 µg/mL"
"CC(C)CCCCCCCCCCCC(=O)Nc1ccc(S(=O)(=O)O)cc1 [Compound 2, N-(4-Sulfo-phenyl)-13-methyl tetradecamide]",,,,,"K562 IC50 ([1]; Table 1, 48 hours): 27.1 µg/mL; K562 IC90 ([1]; Table 1, 48 hours): 37.8 µg/mL; B16 IC50 ([2]; Table 1, 48 hours): 25.4 µg/mL; B16 IC90 ([2]; Table 1, 48 hours): 35.7 µg/mL"
"CC(C)CCCCCCCCCCCC(=O)Nc1ccc(C(=O)O)c(O)c1 [Compound 12, N-(3-Hydroxy-4-carboxylphenyl)-13-methyl-tetradecanamide]",18.7 µg/mL,24.7 µg/mL,16.5 µg/mL,22.9 µg/mL,
"CC(C)CCCCCCCCCCCC(=O)N[C@@H](CCC(=O)O)C(=O)O [Compound 9, N-(13-methyl-tetradecanoyl)-L-glutamic acid]",28.2 µg/mL,37.9 µg/mL,26.3 µg/mL,35.1 µg/mL,
"CCC(C)CCCCCCCCCCCc1ccc(O)cc1O (stereo not drawn) [Compound 23, (12-Methyl tetradecyl)-2,4-dihydroxy phene]",,,,,"K562 IC50 ([1]; Table 1, 48 hours): 9.51 µg/mL; K562 IC90 ([1]; Table 1, 48 hours): 14.6 µg/mL; B16 IC50 ([2]; Table 1, 48 hours): 8.81 µg/mL; B16 IC90 ([2]; Table 1, 48 hours): 13.8 µg/mL"
"CC(C)CCCCCCCCCCCC(=O)NCC(=O)O [Compound 3, N-(13-methyl-tetradecanoyl)glycine]",14.7 µg/mL,21.9 µg/mL,12.8 µg/mL,20.1 µg/mL,
"CC(C)CCCCCCCCCCCCc1ccc(O)c(O)c1O [Compound 24, (13-Methyl tetradecyl)-2,3,4-trihydroxy phene]",,,,,"K562 IC50 ([1]; Table 1, 48 hours): 13.6 µg/mL; K562 IC90 ([1]; Table 1, 48 hours): 19.2 µg/mL; B16 IC50 ([2]; Table 1, 48 hours): 12.8 µg/mL; B16 IC90 ([2]; Table 1, 48 hours): 19.5 µg/mL"
"CC(C)(C)CCCCCCCCCCCCc1ccc(O)cc1O [Compound 22, (13,13-Dimethyl tetradecyl)-2,4-dihydroxy phene]",,,,,"K562 IC50 ([1]; Table 1, 48 hours): 3.92 µg/mL; K562 IC90 ([1]; Table 1, 48 hours): 5.36 µg/mL; B16 IC50 ([2]; Table 1, 48 hours): 3.63 µg/mL; B16 IC90 ([2]; Table 1, 48 hours): 5.42 µg/mL"
"(2,3,4-Trihydroxy phenyl)-12-methyl tridecanone [Compound 20]",,,,,"K562 IC50 ([1]; Table 1, 48 hours): 15.3 µg/mL; K562 IC90 ([1]; Table 1, 48 hours): 20.2 µg/mL; B16 IC50 ([2]; Table 1, 48 hours): 14.8 µg/mL; B16 IC90 ([2]; Table 1, 48 hours): 19.32 µg/mL"
"CC(C)CCCCCCCCCCC(N)C(=O)O (stereo not drawn) [Compound 28, 2-Amino-13-methyl-tetradecanoic acid]",19.7 µg/mL,28.6 µg/mL,17.4 µg/mL,25.3 µg/mL,
"CC(C)CCCCCCCCCCCC(=O)N[C@H](C(=O)O)C(C)C [Compound 6, N-(13-methyl-tetradecanoyl)-L-valine]",18.1 µg/mL,22.5 µg/mL,11.7 µg/mL,19.2 µg/mL,
CC(C)CCCCCCCC=CCCCCC(=O)O [15-methyl-6-hexadecenoic acid],,,,,"IC50 [1, 4]: 23.8 µg/mL; IC90 [1, 4]: 30.5 µg/mL; IC50 [2, 5]: 21.3 µg/mL; IC90 [2, 5]: 35.2 µg/mL"
"CC[C@H](C)[C@H](NC(=O)CCCCCCCCCCCC(C)C)C(=O)O [Compound 8, N-(13-methyl-tetradecanoyl)-L-isoleucine]",19.3 µg/mL,28.6 µg/mL,11.1 µg/mL,18.9 µg/mL,
"CC(C)CCCCCCCCCCCNc1ccc(S(=O)(=O)O)cc1 [Compound 25, N-(12-Methyltridecyl)-4-amino benzenesulfonic acid]",15.1 µg/mL,20 µg/mL,13.5 µg/mL,18.8 µg/mL,
